Values after ≈ are worked out from the molar mass of the structure shown.

The subject of one series is rhinovirus A16. The series is described as follows: Antiviral activity against Human rhinovirus 16 infected in human HeLa Ohio cells assessed as inhibition of virus-induced cytopathic effect by CellTiter-Glo assay. Conditions: Rhinovirus A. Type of series: functional, organism-based. A general note: Damage to the host cells serves as the signal in cytopathic effect assays.

The nature of series [1]: Clearance in rat at 2 mg/kg, iv. Type of series: ADME, organism-based. More on the design: dose 2 mg/kg, route intravenous. Particulars: in vivo.
The target in series [2] is T1, Cytochrome P450 2D6 (Homo sapiens, UniProt P10635). The series is described as follows: Time dependent inhibition of CYP2D6. Type of series: ADME.
T1 sequence (P10635 whole entry): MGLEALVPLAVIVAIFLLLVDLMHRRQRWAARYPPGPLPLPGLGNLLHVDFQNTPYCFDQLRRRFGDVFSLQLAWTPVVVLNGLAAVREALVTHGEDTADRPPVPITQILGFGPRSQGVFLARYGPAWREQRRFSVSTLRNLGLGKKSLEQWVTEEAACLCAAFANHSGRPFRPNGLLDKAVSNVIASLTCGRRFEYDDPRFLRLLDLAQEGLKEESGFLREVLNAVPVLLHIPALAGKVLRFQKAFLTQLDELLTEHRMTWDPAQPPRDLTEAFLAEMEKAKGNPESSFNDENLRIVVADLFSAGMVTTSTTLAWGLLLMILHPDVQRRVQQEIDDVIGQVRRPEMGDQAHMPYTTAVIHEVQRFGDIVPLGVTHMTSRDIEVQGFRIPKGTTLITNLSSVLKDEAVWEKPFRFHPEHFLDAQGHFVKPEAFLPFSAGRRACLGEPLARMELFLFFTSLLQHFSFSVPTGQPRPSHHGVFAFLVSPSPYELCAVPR
Series [3] is described as follows: Apparent permeability of compound by PAMPA. It is filed as ADME. (In general: PAMPA measures passive passage across an artificial lipid membrane.)
A short description of series [4]: Intrinsic clearance in human microsomes after 45 mins by HPLC method. Type of series: ADME, Microsome.
Series [5] is described as follows: Oral bioavailability in rat. It is filed as ADME, organism-based. Particulars: in vivo.
Series [6] addresses T2, Cytochrome P450 2C9 (Homo sapiens, UniProt P11712). The series is described as follows: Inhibition of CYP2C9. Type of series: ADME.
The target in series [7] is T1, Cytochrome P450 2D6. The series is described as follows: Inhibition of CYP2D6. It is filed as ADME.
The target of series [8] is T3, Cytochrome P450 3A4 (Homo sapiens, UniProt P08684). The series is described as follows: Time dependent inhibition of CYP3A4. It is filed as ADME.
T3 sequence (P08684 whole entry): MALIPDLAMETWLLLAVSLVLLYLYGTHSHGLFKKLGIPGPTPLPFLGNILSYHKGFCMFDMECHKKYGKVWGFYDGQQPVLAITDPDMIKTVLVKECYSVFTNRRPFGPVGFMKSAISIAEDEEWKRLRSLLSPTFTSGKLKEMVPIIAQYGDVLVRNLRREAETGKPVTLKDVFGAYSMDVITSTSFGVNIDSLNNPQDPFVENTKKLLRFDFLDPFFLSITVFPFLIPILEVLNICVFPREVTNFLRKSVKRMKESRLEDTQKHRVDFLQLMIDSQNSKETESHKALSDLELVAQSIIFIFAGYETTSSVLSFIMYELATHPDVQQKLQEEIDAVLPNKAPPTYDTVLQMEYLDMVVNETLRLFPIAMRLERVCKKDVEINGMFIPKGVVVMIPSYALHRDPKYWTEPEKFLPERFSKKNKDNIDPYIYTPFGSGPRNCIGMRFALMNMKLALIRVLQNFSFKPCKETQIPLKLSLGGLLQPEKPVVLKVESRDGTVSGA
The nature of series [9]: Volume of distribution at steady state in rat at 2 mg/kg, iv. Particulars: in vivo, read-out: Vdss. More on the design: dose 2 mg/kg, route intravenous. Type of series: ADME, organism-based.
Series [10] concerns the target T2, Cytochrome P450 2C9. The series is described as follows: Time dependent inhibition of CYP2C9. Type of series: ADME.
A short description of series [11]: Unbound fraction in human plasma. Type of series: ADME, cell-free.
The target of series [12] is T4, Nuclear receptor subfamily 1 group I member 2 (Homo sapiens, UniProt O75469).
T4 sequence (O75469 whole entry): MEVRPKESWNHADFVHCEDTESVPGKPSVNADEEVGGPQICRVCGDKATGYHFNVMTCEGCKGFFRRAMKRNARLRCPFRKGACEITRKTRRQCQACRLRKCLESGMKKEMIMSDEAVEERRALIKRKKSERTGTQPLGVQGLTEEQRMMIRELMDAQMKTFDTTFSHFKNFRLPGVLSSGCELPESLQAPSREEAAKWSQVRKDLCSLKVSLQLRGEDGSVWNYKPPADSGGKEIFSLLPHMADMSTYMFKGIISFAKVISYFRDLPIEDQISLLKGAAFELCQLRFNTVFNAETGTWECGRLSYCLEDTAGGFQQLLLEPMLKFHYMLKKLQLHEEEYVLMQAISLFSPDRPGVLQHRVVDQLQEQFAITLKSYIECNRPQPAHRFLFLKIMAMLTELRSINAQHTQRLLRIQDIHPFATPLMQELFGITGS
The series is described as follows: Activation of human PXR expressed in african green monkey CV1 cells transfected with pSG5-hPXRDATG and (ER6)3-tk-CAT reporter. It is filed as cell-based, CV-1.

Series [13] is described as follows: Aqueous equilibrium solubility of the compound by shake-flask technique. It is filed as physicochemical. Particulars: buffer.
Series [14] concerns the target T3, Cytochrome P450 3A4. The series is described as follows: Inhibition of CYP3A4. It is filed as ADME.
Series [15] deals with T5, Cytochrome P450 1A2 (Homo sapiens, UniProt P05177).
T5 sequence (P05177 whole entry): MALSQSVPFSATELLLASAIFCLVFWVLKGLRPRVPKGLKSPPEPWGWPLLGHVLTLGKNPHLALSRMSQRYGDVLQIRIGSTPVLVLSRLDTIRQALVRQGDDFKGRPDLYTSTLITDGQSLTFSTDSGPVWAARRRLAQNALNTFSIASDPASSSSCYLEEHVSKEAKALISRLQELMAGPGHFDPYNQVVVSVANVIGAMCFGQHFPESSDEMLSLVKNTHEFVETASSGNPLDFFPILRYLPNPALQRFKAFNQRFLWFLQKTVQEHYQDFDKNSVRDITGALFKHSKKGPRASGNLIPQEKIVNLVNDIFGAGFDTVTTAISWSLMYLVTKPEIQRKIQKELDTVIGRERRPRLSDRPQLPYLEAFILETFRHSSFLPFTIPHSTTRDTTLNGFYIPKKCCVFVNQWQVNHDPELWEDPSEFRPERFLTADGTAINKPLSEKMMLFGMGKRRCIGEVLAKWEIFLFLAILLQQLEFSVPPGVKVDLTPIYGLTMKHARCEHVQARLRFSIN
The series is described as follows: Inhibition of CYP1A2. Type of series: ADME.

Series [16] has as its target T6, Cytochrome P450 2C19 (Homo sapiens, UniProt P33261). The series is described as follows: Time dependent inhibition of CYP2C19. It is filed as ADME.
Series [17] can be described thus: Chemical stability of compound assessed as half life. It is filed as physicochemical.
In a further series the test system is rhinovirus A2. The series is described as follows: Antiviral activity against Human rhinovirus 2 infected in human HeLa Ohio cells assessed as inhibition of virus-induced cytopathic effect by CellTiter-Glo assay. It is filed as functional, organism-based. Particulars: Rhinovirus A.
Series [18] can be described thus: Lipophilicity, log D of the compound. It is filed as physicochemical. Conditions: octanol/water.
In series [19] the target is T6, Cytochrome P450 2C19. The series is described as follows: Inhibition of CYP2C19. Type of series: ADME.
A short description of series [20]: Unbound fraction in rat plasma. It is filed as ADME, cell-free.
The target in the next series is T7, PXR (NR1I2) (Homo sapiens, UniProt O75469).
T7 sequence (O75469 whole entry): T4 sequence (O75469 whole entry)
The series is described as follows: Activation of human PXR expressed in african green monkey CV1 cells transfected with pSG5-hPXRDATG and (ER6)3-tk-CAT reporter assessed as maximal activation relative to control. Type of series: cell-based, CV-1.

Series [21] can be described thus: Half life in rat at 2 mg/kg, iv. Type of series: ADME, organism-based. More on the design: dose 2 mg/kg, route intravenous. Conditions: in vivo.
Series [22] can be described thus: Intrinsic clearance in Sprague-Dawley rat hepatocytes assessed per 10^6 cells preincubated for 5 mins measured after 90 mins. It is filed as ADME, cell-based, Liver, Hepatocyte.
The target of series [23] is T5, Cytochrome P450 1A2. The series is described as follows: Time dependent inhibition of CYP1A2. Type of series: ADME.
A further series concerns rhinovirus B14. The series is described as follows: Antiviral activity against Human rhinovirus 14 infected in human HeLa Ohio cells assessed as inhibition of virus-induced cytopathic effect by CellTiter-Glo assay. Type of series: functional, organism-based. Conditions: Rhinovirus B.

T2 sequence (P11712 whole entry): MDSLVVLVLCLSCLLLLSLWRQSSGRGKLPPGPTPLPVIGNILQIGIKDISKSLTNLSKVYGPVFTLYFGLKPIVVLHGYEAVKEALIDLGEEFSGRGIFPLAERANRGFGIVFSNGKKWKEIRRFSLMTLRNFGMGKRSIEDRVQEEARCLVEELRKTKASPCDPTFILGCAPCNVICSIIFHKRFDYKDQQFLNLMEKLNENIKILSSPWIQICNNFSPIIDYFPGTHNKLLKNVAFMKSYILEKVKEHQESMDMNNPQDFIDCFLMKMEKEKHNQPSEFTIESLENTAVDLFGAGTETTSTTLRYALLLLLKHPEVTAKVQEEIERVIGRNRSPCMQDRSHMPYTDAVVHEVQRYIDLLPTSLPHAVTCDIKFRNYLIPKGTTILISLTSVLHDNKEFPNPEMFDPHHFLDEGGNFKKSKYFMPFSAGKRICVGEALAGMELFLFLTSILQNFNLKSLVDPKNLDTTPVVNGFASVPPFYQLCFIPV
T6 sequence (P33261 whole entry): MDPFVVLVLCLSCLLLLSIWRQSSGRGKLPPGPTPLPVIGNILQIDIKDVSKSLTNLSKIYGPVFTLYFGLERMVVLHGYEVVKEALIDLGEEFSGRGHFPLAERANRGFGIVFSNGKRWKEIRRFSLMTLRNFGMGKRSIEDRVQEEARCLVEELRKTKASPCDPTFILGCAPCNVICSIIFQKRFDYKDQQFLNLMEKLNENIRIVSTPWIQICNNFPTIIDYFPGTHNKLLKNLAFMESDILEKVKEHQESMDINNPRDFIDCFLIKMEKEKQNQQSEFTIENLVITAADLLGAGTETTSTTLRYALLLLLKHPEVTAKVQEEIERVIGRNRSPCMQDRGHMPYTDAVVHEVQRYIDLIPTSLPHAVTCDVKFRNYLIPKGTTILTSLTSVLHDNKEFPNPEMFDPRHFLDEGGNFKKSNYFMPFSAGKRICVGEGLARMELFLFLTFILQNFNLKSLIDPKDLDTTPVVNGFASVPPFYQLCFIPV

A word on the IC50: it is the point on the concentration scale where inhibition reaches its midpoint. Regarding `CCOC(=O)c1ccc(OCCC2CN(c3ccc(C)nn3)C2)cc1`, in the series on rhinovirus A16, the IC50 was 31.6 nM.
The same measure, in the same setting: the value for `CCOC(=O)c1ccc(COCC2CCN(c3ccc(C)nn3)CC2)cc1` was 100 nM; that for `CCOC(=O)c1ccc(COC2CCN(c3ccc(C)nn3)CC2)cc1` was 25.1 nM; that for `CCOC(=O)c1ccc(OCCC2CN(c3ccc(C)nn3)CCO2)cc1` (stereo not drawn) was 63.1 nM.
Still for that read-out and setting: in the case of `CCOC(=O)c1ccc(OCCC2(C#N)CCN(c3ccc(C)nn3)CC2)cc1` it was 158 nM; in that of `CCOC(=O)c1ccc(CCN2CCN(c3ccc(C)nn3)CC2)cc1`, 79.4 nM; in that of `CCOC(=O)c1ccc(OCC2CCN(c3ccc(C)nn3)C2)cc1` (stereo not drawn), 20 nM.
Still for that read-out and setting: the value for `CCOC(=O)c1ccc(OCC2CN(c3ccc(C)nn3)C2)cc1` was 63.1 nM; that for `CCOC(=O)c1ccc(COC2CN(c3ccc(C)nn3)C2)cc1` was 63.1 nM; that for `CCOC(=O)c1ccc(OCCC2CCN(c3ccc(C)nn3)CC2)nc1` was 63.1 nM.
For the molecule `CCOC(=O)c1ccc(OCCC2CCN(c3ccc(C)nn3)CC2)cn1`, the IC50 in the series with rhinovirus A16 was 2510 nM.
On the same count and under the same terms, the value for `CCOc1nc2ccc(OCCC3CCN(c4ccc(C)nn4)CC3)cn2n1` was 1580 nM; that for `CCOc1nnc2cc(OCCC3CCN(c4ccc(C)nn4)CC3)ccn12` was 1580 nM; that for `Cc1ccc(N2CCC(CCOc3ccc(S(C)(=O)=O)cc3)CC2)nn1` was 2000 nM.
`Cc1ccc(N2CCC(CCOc3ccc([S+](C)[O-])cc3)CC2)nn1` (stereo not drawn): the IC50 in the series with rhinovirus A16 was over 31600 nM.
As a reminder, the clearance is the rate of elimination divided by the concentration. In general, Papp refers to a coefficient for how fast a substance crosses the barrier. What is called microsomal CLint is the rate of metabolic loss divided by the concentration. As usually defined, the bioavailability is dose-corrected exposure relative to a reference, in per cent. The term fraction unbound denotes free concentration divided by total concentration. As usually defined, the EC50 is the concentration needed to bring the measured effect to its halfway point. Broadly, the solubility (thermodynamic) is solubility found after equilibrating the solid with the medium. A word on the half-life: it is the time in which the quantity being followed falls by half. Broadly, the logD is the decadic logarithm of the distribution of all forms, ionised or not, between an organic phase and buffer at a given pH. A word on the Emax: it is the size of the effect at its maximum, as opposed to the concentration needed. One may read the hepatocyte CLint as a measure of how fast metabolising enzymes remove a compound, apart from limits set by blood flow. As to `Cc1ccc(N2CC(COc3ccc(-c4noc(C)n4)cc3)C2)nn1`, the clearance in series [1] is 9 mL/min/kg. The IC50 was over 50100 nM at Cytochrome P450 2D6 [2]; over 10000 nM against Cytochrome P450 2C9 [6]; over 10000 nM on Cytochrome P450 2D6 [7]; over 50100 nM against Cytochrome P450 3A4 [8]; over 50100 nM against Cytochrome P450 2C9 [10]; over 10000 nM at Cytochrome P450 3A4 [14]. For the same molecule, the IC50 at Cytochrome P450 1A2 [15] was over 10000 nM; at Cytochrome P450 2C19 [16], over 50100 nM; with rhinovirus A2, 50.1 nM; in the series on rhinovirus A16, 79.4 nM; on Cytochrome P450 2C19 [19], over 10000 nM; at Cytochrome P450 1A2 [23] it was over 50100 nM. In addition, the Papp in series [3] worked out at 47 ×10⁻⁶ cm/s. Moreover, the intrinsic clearance (microsomal CLint) in [4] turned out to be 26 µL/min/mg. The molecule also registered a bioavailability in [5] of 60%. Further, in series [9], the Vd was determined as 1.5 L/kg. In addition, the unbound share (fraction unbound) in [11] stood at 0.06; in [20], 0.05. Besides, in series [12], the response was half-maximal at 31600 nM (EC50). The molecule further yielded a solubility (thermodynamic) in series [13] of 125 µM (≈ 42.2 µg/mL). Further, the half-life in series [17] is over 200 h; in [21] it was 2.2 h. Besides, in series [18], the logD worked out at 2.6. Besides, the Emax at PXR (NR1I2) came out at 19%. The molecule further returned a hepatocyte CLint in [22] of 5 µL/min/1e6 cells.
For `CCOC(=O)c1ccc(OCCC2CCN(c3ccc(C)nn3)CC2)cc1` [PIRODAVIR], the IC50 is under 100 nM in the series with rhinovirus B14, under 100 nM with rhinovirus A2 and 63.1 nM with rhinovirus A16.
Take `Cc1cc(CCCOc2c(C)cc(-c3noc(C(F)(F)F)n3)cc2C)on1` [PLECONARIL]: the half-inhibitory concentration (IC50) is over 50100 nM against Cytochrome P450 2D6 [2]; over 10000 nM at Cytochrome P450 2C9 [6]; 6310 nM at Cytochrome P450 2D6 [7]; over 50100 nM at Cytochrome P450 2C9 [10]; under 100 nM with rhinovirus B14; over 10000 nM at Cytochrome P450 1A2 [15]. Besides, the IC50 at Cytochrome P450 2C19 [16] was over 50100 nM; with rhinovirus A2, 100 nM; in the series with rhinovirus A16, 1000 nM; against Cytochrome P450 2C19 [19] it was over 10000 nM; against Cytochrome P450 1A2 [23] it was over 50100 nM. For the same molecule, the microsomal CLint in [4] is 22 µL/min/mg. The fraction unbound in series [11] is 0.0013; in series [20], under 0.002. Further, in series [12], the 50% effective concentration (EC50) is 251 nM. For the same molecule, the solubility (thermodynamic) in series [13] is under 2 µM. For the same molecule, the logD in [18] is over 4.5. The Emax at PXR (NR1I2) amounted to 88%. The same molecule displayed a hepatocyte CLint in series [22] of 20 µL/min/1e6 cells.

Values taken from ChEMBL document CHEMBL1833869, “Effect of lipophilicity modulation on inhibition of human rhinovirus capsid binders” (Bioorg Med Chem Lett, 2011).
